Experimental data from paper PMC11620517, “Novel hydrazone compounds with broad-spectrum antiplasmodial activity and synergistic interactions with antimalarial drugs” (Antimicrobial Agents and Chemotherapy, 2024).
“And” between values parts separate entries of the source, which are not always exact repeats. Equal values may be shown once. Read-outs that look alike come from different tables or passages of the source.

Experiments:
[1] = system: P. falciparum oocyst formation in Anopheles stephensi mosquitoes; assay: P. falciparum oocyst inhibition assay (SMFA); assay type: in vivo, Plasmodium falciparum; settings: for Median (oocysts) / Median I % / Prevalence % / Prevalence I %: pooled from two representative experiments; for oocyst formation inhibition: 1 to 10 µM, midguts dissected 8 days after feeding
Method: As previously described, P. falciparum infections were performed using SMFA with NF54 gametocyte cultures diluted to 0.3% stage V gametocytemia ([62]). Infected blood (O+ human 45% hematocrit in serum) was offered to mosquitoes for 30 minutes, and engorged mosquitoes were maintained on a 10% corn syrup solution supplemented by four concentrations of CB compounds (1, 2.5, 5, and 10 µM) at […] ([63]), with DMSO serving as a control. Eight days post-infection, mosquito midguts were dissected and stained with 0.2% mercurochrome for 30 minutes, and oocysts were quantified under a light microscope ([63]).

[2] = system: P. berghei blood-stage parasites; assay: P. berghei blood-stage isobolograms; assay type: cell-based, Plasmodium berghei
Method: Antimalarial activity and IC50 values of CB-61 and five antimalarial drugs were assessed using the previously described in vitro drug luminescence assay ([14], [68]). Blood-stage isobolograms were performed to confirm synergistic combinations between CB-61 and the five drugs, following established protocols ([69]). Thirty-two-fold IC50 concentrations were used to obtain six concentration ranges for each drug combination, and then they were serially diluted five times ([67]). IC50 scores for each drug alone were determined, and FIC50 values (FIC50 = […]) were calculated and plotted ([70], [71]). The Promega Luciferase Assay System Kit was used to measure mature schizonts’ RLUs, and Giemsa blood smears confirmed the presence of schizonts ([14]).

[3] = 1 μM compound, P. falciparum midgut infection in An. stephensi mosquitoes
[4] = 1 μM compound, infection prevalence in mosquitoes
[5] = 2.5 μM compound, P. falciparum midgut infection in An. stephensi mosquitoes
[6] = 2.5 μM compound, infection prevalence in mosquitoes
[7] = 5 μM compound, P. falciparum midgut infection in An. stephensi mosquitoes
[8] = 5 μM compound, infection prevalence in mosquitoes
[9] = 10 μM compound, P. falciparum midgut infection in An. stephensi mosquitoes
[10] = 10 μM compound, infection prevalence in mosquitoes

## O=C(N/N=C/c1c(O)ccc2ccccc12)c1cc([N+](=O)[O-])cc([N+](=O)[O-])c1 [CB-61]
[1]; 1 μM compound
  Median oocyst #: 1
[1]; [3]
  Mean oocyst # excluding zeros (Range): 30 (0-109)
[1]; [4]
  Prevalence: 60
[1]; 1 µM
  Median (oocysts): 1
  Median I %: 83%
  Prevalence %: 59%
  Prevalence I %: 31%
[1]; 2.5 μM compound
  Median oocyst #: 1
[1]; [5]
  Mean oocyst # excluding zeros (Range): 20 (0-65)
[1]; [6]
  Prevalence: 55
[1]; 2.5 µM
  Median (oocysts): 1
  Median I %: 83%
  Prevalence %: 55%
  Prevalence I %: 36%
[1]; 2.5 μM, single experiments
  % inhibition (median): 62%
[1]; 5 μM compound
  Median oocyst #: 1
[1]; [7]
  Mean oocyst # excluding zeros (Range): 20 (0-68)
[1]; [8]
  Prevalence: 55
[1]; 5 µM
  Median (oocysts): 1
  Median I %: 83%
  Prevalence %: 55%
  Prevalence I %: 36%
[1]; 5 μM, single experiments
  % inhibition (median): 58%
[1]; 7.5 μM, single experiments
  Mean oocyst # excluding zeros (Range): 15 (0-53)
  Median oocyst #: 2.5
  Prevalence: 75
[1]; 10 μM compound
  Median oocyst #: 0
[1]; [9]
  Mean oocyst # excluding zeros (Range): 7 (0-30)
[1]; [10]
  Prevalence: 46
[1]; 10 µM
  Median (oocysts): 0
  Median I %: 100%
  Prevalence %: 46%
  Prevalence I %: 47%
[1]; 25 μM, single experiments
  Mean oocyst # excluding zeros (Range): 1 (0-2)
  Median oocyst #: 0
  Prevalence: 18
[1]; 50 μM, single experiments
  Mean oocyst # excluding zeros (Range): 1 (0-2)
  Median oocyst #: 0
  Prevalence: 15
[1]
  oocyst formation inhibition: inhibited midgut oocyst formation in a dose-dependent manner
[1]; read-out: % inhibition (mean), 2.5 μM compound, oocyst number vs DMSO control
  inhibition at 2.5 µM: 23%
[1]; read-out: % inhibition (mean), 5 μM compound, oocyst number vs DMSO control
  inhibition at 5 µM: 23%
[1]; read-out: % inhibition (mean), 7.5 μM, single experiments
  inhibition at 7.5 µM: 29%
[1]; read-out: % inhibition (mean), 10 μM compound, oocyst number vs DMSO control
  inhibition at 10 µM: 72%
[1]; read-out: % inhibition (mean), 25 μM, single experiments
  inhibition at 25 µM: 48%
[1]; read-out: % inhibition (mean), 50 μM, single experiments
  inhibition at 50 µM: 49%
[1]; read-out: % inhibition (median), 1 μM compound, oocyst number vs DMSO control
  inhibition at 1 µM: 83%
[1]; read-out: % inhibition (median), 2.5 μM compound, oocyst number vs DMSO control
  inhibition at 2.5 µM: 83%
[1]; read-out: % inhibition (median), 5 μM compound, oocyst number vs DMSO control
  inhibition at 5 µM: 83%
[1]; read-out: % inhibition (median), 7.5 μM, single experiments
  inhibition at 7.5 µM: 79%
[1]; read-out: % inhibition (median), 10 μM compound, oocyst number vs DMSO control
  inhibition at 10 µM: 100%
[1]; read-out: % inhibition (median), 25 μM, single experiments
  inhibition at 25 µM: 100%
[1]; read-out: % inhibition (median), 50 μM, single experiments
  inhibition at 50 µM: 100%
[1]; read-out: % inhibition (prevalence), 1 μM compound, vs DMSO control
  inhibition at 1 µM: 31%
[1]; read-out: % inhibition (prevalence), 2.5 μM compound, vs DMSO control
  inhibition at 2.5 µM: 36%
[1]; read-out: % inhibition (prevalence), 5 μM compound, vs DMSO control
  inhibition at 5 µM: 36%
[1]; read-out: % inhibition (prevalence), 7.5 μM, single experiments
  inhibition at 7.5 µM: 21%
[1]; read-out: % inhibition (prevalence), 10 μM compound, vs DMSO control
  inhibition at 10 µM: 47%
[1]; read-out: % inhibition (prevalence), 25 μM, single experiments
  inhibition at 25 µM: 74%
[1]; read-out: % inhibition (prevalence), 50 μM, single experiments
  inhibition at 50 µM: 78%
[2]; combination with ATQ
  Mean ΣFIC50: 1.13
[2]; combination with CLIND
  Mean ΣFIC50: 0.82
[2]; combination with CQ (negative control)
  Mean ΣFIC50: 1.15
[2]; combination with DHA
  Mean ΣFIC50: 1.44
[2]; combination with HALO
  Mean ΣFIC50: 0.78
[2]; combination with LUM
  Mean ΣFIC50: 1.20

## O=C(NN=Cc1ccccc1O)c1cc(-c2ccccc2)nc2ccccc12 [CB-53]
[1]; 1 μM compound
  Median oocyst #: 1
[1]; [3]
  Mean oocyst # excluding zeros (Range): 36 (0-125)
[1]; [4]
  Prevalence: 59
[1]; 1 μM compound, oocyst number vs DMSO control, read-out: % inhibition (mean)
  inhibition at 1 µM: 5%
[1]; 1 μM compound, oocyst number vs DMSO control, read-out: % inhibition (median)
  inhibition at 1 µM: 83%
[1]; 1 μM compound, vs DMSO control, read-out: % inhibition (prevalence)
  inhibition at 1 µM: 32%
[1]; 1 µM
  Median (oocysts): 1
  Median I %: 83%
  Prevalence %: 59%
  Prevalence I %: 32%
[1]; 1 μM, single experiments, read-out: % inhibition (mean)
  inhibition at 1 µM: 36%
[1]; 2.5 μM compound
  Median oocyst #: 1
[1]; [5]
  Mean oocyst # excluding zeros (Range): 29 (0-115)
[1]; [6]
  Prevalence: 60
[1]; 2.5 μM compound, oocyst number vs DMSO control, read-out: % inhibition (mean)
  inhibition at 2.5 µM: 22%
[1]; 2.5 μM compound, oocyst number vs DMSO control, read-out: % inhibition (median)
  inhibition at 2.5 µM: 83%
[1]; 2.5 μM compound, vs DMSO control, read-out: % inhibition (prevalence)
  inhibition at 2.5 µM: 31%
[1]; 2.5 µM
  Median (oocysts): 1
  Median I %: 83%
  Prevalence %: 60%
  Prevalence I %: 31%
[1]; 2.5 μM, single experiments
  Prevalence: 67 and 91 and 47 and 70
[1]; 2.5 μM, single experiments, read-out: % inhibition (mean)
  inhibition at 2.5 µM: 37%
[1]; 5 μM compound
  Median oocyst #: 0
[1]; [7]
  Mean oocyst # excluding zeros (Range): 26 (0-83)
[1]; [8]
  Prevalence: 48
[1]; 5 μM compound, oocyst number vs DMSO control, read-out: % inhibition (mean)
  inhibition at 5 µM: 44%
[1]; 5 μM compound, vs DMSO control, read-out: % inhibition (prevalence)
  inhibition at 5 µM: 44%
[1]; 5 µM
  Median (oocysts): 0
  Median I %: 100%
  Prevalence %: 48%
  Prevalence I %: 44%
[1]; 5 μM, single experiments
  % inhibition (mean): 23%
[1]; 5 μM, single experiments, read-out: % inhibition (mean)
  inhibition at 5 µM: 24%
[1]; 10 μM compound
  Median oocyst #: 1
[1]; [9]
  Mean oocyst # excluding zeros (Range): 28 (0-129)
[1]; [10]
  Prevalence: 58
[1]; 10 μM compound, oocyst number vs DMSO control, read-out: % inhibition (mean)
  inhibition at 10 µM: 28%
[1]; 10 μM compound, oocyst number vs DMSO control, read-out: % inhibition (median)
  inhibition at 10 µM: 83%
[1]; 10 μM compound, vs DMSO control, read-out: % inhibition (prevalence)
  inhibition at 10 µM: 33%
[1]; 10 µM
  Median (oocysts): 1
  Median I %: 83%
  Prevalence %: 58%
  Prevalence I %: 33%
[1]
  oocyst formation inhibition: inhibit the development of oocysts
